Activity calls are given as the source filed them.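 The calls were made as follows: active = compounds giving half or more protection of infected cells from virus-caused growth loss, again on retest; inactive = the rest.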 *1 amine or outer side, *2 acyl side, *3 side chain or, on linkers, in order; H or OH if unused. Where a SMILES comes first, the peptide text is derived from it. [ ]: non-standard residue; d: D form. X1 = O=C(C1=CN(Cc2ccccc2)C=CC1N[*:1])[*:2]
Tested on: CEM cells HIV-1 protection, formazan growth assay
Assay: NCI AIDS Antiviral Assay
Conditions: for IC50: measured here: growth of uninfected CEM cells
Outline: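 Screen of anti-HIV-1 activity in human CEM cells using a formazan-based growth measurement at five drug concentrations. Hits with 50% or greater protection were repeated, and confirmation required reproducible complete protection.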

SMILES: O=C1C2c3[nH]c4ccccc4c3C3CCCCCC3C2C(=O)N1c1ccccc1 (stereo unspecified)
- outcome: inactive

SMILES: COC(=O)C(C(=O)C(=O)Nc1c(Cl)cc([N+](=O)[O-])cc1Cl)c1nc2cc(C)c(C)cc2[nH]c1=O (stereo unspecified)
- EC50: > 97.7 µM
- IC50: > 97.7 µM

SMILES: O=C(c1ccccc1)c1cn(/N=C\c2ccccc2)c(=O)nc1-c1ccccc1
- outcome: inactive

SMILES: CCCCCCN(CCCCCC)C(F)(F)C(=O)Nc1ccc(S(=O)(=O)c2ccc(NC(=O)C(F)(F)N(CCCCCC)CCCCCC)cc2)cc1
- EC50: > 100 µM
- IC50: 5.13 µM

SMILES: C[C@H]1COC2=C1C(=O)C(=O)c1c2ccc2c1CCCC2(C)C
- EC50: > 200 µM
- IC50: 8.91 µM

SMILES: O=[N+]([O-])/C(C(Cl)=C(Cl)Cl)=C(\SCc1ccccc1)N1CCCCC1
- EC50: > 200 µM
- IC50: > 200 µM

SMILES: NC(N)=NS(=O)(=O)c1ccc(NCCc2c3ccccc3nc3ccccc23)cc1
- EC50: > 200 µM
- IC50: 66.1 µM

SMILES: O=c1c(SCc2ccc(Br)cc2)c(SCc2ccc(Br)cc2)cnn1-c1ccccc1
- EC50: > 12.6 µM
- IC50: 6.46 µM

SMILES: COc1cc(C2c3cc4c(cc3OC(NN)C2C)OCO4)cc(OC)c1O (stereo unspecified)
- outcome: inactive

SMILES: CCN(CC)CC(C)(C)C(=O)/C=C/c1ccc(Cl)cc1
- EC50: > 200 µM
- IC50: 7.24 µM

SMILES: O=c1oc(-c2ccccc2)c(-c2ccccc2)n1-c1ccc(Br)cc1
- EC50: > 100 µM
- IC50: > 100 µM

SMILES: Cc1nc2c(=S)nc[nH]c2n1Nc1ccccc1
- EC50: > 200 µM
- IC50: 72.4 µM

SMILES: COc1ccc(C=O)c(NC(=O)C(C)C)c1
- outcome: inactive

SMILES: NC(N)=N/N=C(\c1ccc(F)cc1)C1CC1
- EC50: > 200 µM
- IC50: 33.9 µM

SMILES: CC(=O)Nc1cc(S(=O)(=O)O)cc2cc(S(=O)(=O)O)c(N=Nc3ccc(C(=O)Nc4ccc(S(=O)(=O)O)cc4)cc3)c(O)c12
- outcome: inactive

SMILES: COC(=O)c1cc(C(=CC(=O)OC(C)(C)C)c2cc(Cl)c(OC)c(C(=O)OC)c2)cc(Cl)c1OC
- EC50: > 100 µM
- IC50: 14.1 µM

SMILES: C/C(=C\C(=O)Nc1ccc2n[nH]nc2c1)Nc1ccc2n[nH]nc2c1
- outcome: inactive

SMILES: COc1ccc(/C=C(\C#N)c2ccccn2)cc1OC
- EC50: > 200 µM
- IC50: 50.1 µM

SMILES: Cc1ccc(S(=O)(=O)c2ccsc2NC(=O)c2ccccc2)cc1
- EC50: > 100 µM
- IC50: > 100 µM

SMILES: CC(=O)OCc1cc(OC(C)=O)cnc1COC(C)=O
- EC50: > 468 µM
- IC50: > 468 µM

SMILES: O=C1Oc2c(ccc3ccccc23)C2OCNCC12 (stereo unspecified)
- EC50: > 200 µM
- IC50: 129 µM

SMILES: C=C1c2nc3ccccc3n2C=C(c2ccc(C)cc2)N1c1ccc(C)cc1
- EC50: > 200 µM
- IC50: 26.9 µM

SMILES: O=C(O)c1ccc(C(=O)c2ccccc2C(=O)O)cc1C(=O)O
- EC50: 19.1 µM
- IC50: > 200 µM

SMILES: O=C1OC(=O)N2CSCC12 (stereo unspecified)
- EC50: > 1580 µM
- IC50: > 1580 µM

SMILES: CCCCCCCn1ccnc1NCCCCCCCCCCNc1nccn1CCCCCCC
- EC50: > 37.2 µM
- IC50: 10 µM

SMILES: COc1cc(O)c2c(=O)c(OC)c(-c3ccc(OC)c(OC)c3)oc2c1.[Co]
- EC50: > 100 µM
- IC50: 56.2 µM

SMILES: CC1NC(=O)C(C(C)C)NC(=O)C2=CN(Cc3ccccc3)C=CC2NC(=O)C(C)NC(=O)C(C(C)C)NC(=O)C2=CN(Cc3ccccc3)C=CC2NC1=O (stereo unspecified) (cyclo([X1]VA[X1]VA); configuration not given here)
- EC50: > 23.4 µM
- IC50: > 23.4 µM

SMILES: Cc1ccc(C2=C(c3ccccc3)C(=O)C(c3ccccc3)=C2c2ccc(C)cc2)cc1
- EC50: > 87.1 µM
- IC50: > 87.1 µM

SMILES: COc1cc2c(cc1OC)C(Cc1ccc(Oc3cc(CC4c5cc(OC)c(OC)cc5CCN4C)ccc3O)cc1)N(C)CC2 (stereo unspecified)
- outcome: inactive

SMILES: CC(=O)OCC1OC(n2c(-c3ccc(Cl)cc3)ccc(C#N)c2=S)C(OC(C)=O)C(OC(C)=O)C1OC(C)=O (stereo unspecified)
- EC50: > 200 µM
- IC50: > 200 µM

SMILES: CCCCCCCCCCCCCCC(C(=O)O)C(=O)O
- EC50: > 832 µM
- IC50: 398 µM

SMILES: N#Cc1cc([N+](=O)[O-])ccc1NC(=O)C(F)(F)F
- EC50: > 100 µM
- IC50: 89.1 µM

SMILES: O=C(OCc1ccccc1)N(CCCCN(CCCNCc1ccccc1)C(=O)OCc1ccccc1)CCCNCc1ccccc1
- EC50: > 2 µM
- IC50: 0.871 µM

SMILES: COc1cc(/C=C2\CC/C(=C\c3ccc(O)c(OC)c3)C2=O)ccc1O
- EC50: > 200 µM
- IC50: 1.48 µM

SMILES: CC1=C2C(=C(CBr)OS1(=O)=O)C(=O)c1ccccc12
- EC50: > 741 µM
- IC50: 38.9 µM

SMILES: Cn1c(O)c(C=Nc2ccccc2[N+](=O)[O-])c(=O)n(C)c1=O
- outcome: inactive

SMILES: O=C(/C=C/c1ccccc1)NC(=S)NCc1ccco1
- EC50: > 200 µM
- IC50: > 200 µM

SMILES: O=S(=O)(Cc1ccccc1)C(I)c1ccccc1 (stereo unspecified)
- EC50: > 69.2 µM
- IC50: 13.8 µM

SMILES: O=C(O)CSSCC(=O)O
- EC50: > 200 µM
- IC50: > 200 µM

SMILES: O=c1c2ccccc2oc2c1ccc1ncccc12
- EC50: > 200 µM
- IC50: 6.61 µM

SMILES: CCCN1C(=O)/C(=C(/O)C(=O)OCC)C(c2ccc(OC)c(OC)c2)C1=O (stereo unspecified)
- outcome: inactive

SMILES: O=c1oc2ccccc2c2nc3cc(Cl)ccc3cc12
- EC50: > 50.1 µM
- IC50: > 50.1 µM

SMILES: CC1CCC2CC(=O)OC([C@@H]3C(=O)O[C@@H](C4=CCCC4)C4C(C)CCC43)C12 (stereo partly specified)
- EC50: > 10 µM
- IC50: > 10 µM

SMILES: O=C(/C=C/c1ccccc1)c1ccc(NCc2nc3ccccc3[nH]2)cc1
- EC50: > 20.4 µM
- IC50: 11 µM

SMILES: COC1(OC)C2(Cl)C(Cl)=C(Cl)C1(Cl)C1C(=O)C=CC(=O)C12 (stereo unspecified)
- EC50: > 60.3 µM
- IC50: 25.1 µM

SMILES: CCCCCCCCCCCC(=O)c1c(O)cccc1O
- EC50: > 17.8 µM
- IC50: 15.5 µM

SMILES: C=C(C)C(=O)O[C@H]1C/C(CO)=C/CCC(=C)C(OC(C)=O)[C@H]2OC(=O)C(=C)[C@H]12 (stereo partly specified)
- EC50: > 200 µM
- IC50: 1.05 µM

SMILES: CN(C)C(=S)SSC(=S)SSC(=S)N(C)C
- EC50: > 2 µM
- IC50: 0.646 µM

SMILES: COC(=O)C(Cc1nc2ccccc2[nH]c1=O)C(=O)C(=O)Nc1ccc([N+](=O)[O-])cc1[N+](=O)[O-] (stereo unspecified)
- EC50: > 55 µM
- IC50: 25.7 µM

SMILES: N#CNc1nc(N)c(-c2ccc(Cl)cc2)c(C(=O)Nc2nccs2)n1
- EC50: > 676 µM
- IC50: > 676 µM

SMILES: OCc1c[te]c(-c2ccccc2)c1
- outcome: inactive

SMILES: O=C1NC2(CCCCC2)C2=C1CCCCC2
- outcome: inactive

SMILES: CC1OC(O[C@H]2C3C=CO[C@@H](OC4OC(CO)C(O)C(O)C4O)C3[C@@]3(COC(=O)/C=C/c4ccccc4)O[C@@H]23)C(O)C(O)C1O (stereo partly specified)
- EC50: > 200 µM
- IC50: > 200 µM

SMILES: CN1C(CCl)Nc2cc(Cl)c(S(N)(=O)=O)cc2S1(=O)=O (stereo unspecified)
- EC50: > 363 µM
- IC50: 64.6 µM

SMILES: COc1cc2c(cc1OC)C1c3ccccc3C(C#N)(C2)N(C(=O)c2ccccc2)C1O (stereo unspecified)
- outcome: inactive

SMILES: CCNc1cnc2c(n1)c(=O)n(C)c(=O)n2C
- EC50: > 200 µM
- IC50: > 200 µM

SMILES: O=S(=O)(/N=C1/SC(=Nc2ccccc2)N(c2ccccc2)/C1=N/S(=O)(=O)c1ccccc1)c1ccccc1
- EC50: > 200 µM
- IC50: 2.82 µM

SMILES: O=C(/N=C/c1c(O)c2ccccc2oc1=O)Oc1ccccc1
- EC50: > 100 µM
- IC50: 33.1 µM

SMILES: CC1=C(c2cc(C(=O)Nc3cccc(C(F)(F)F)c3)nc(NC#N)n2)Sc2ccccc2N1
- outcome: inactive

SMILES: O=[N+]([O-])c1ccc(OP(=O)(O)OCC2OC(CP(=O)(O)O)C(O)C2O)cc1 (stereo unspecified)
- EC50: > 200 µM
- IC50: > 200 µM

SMILES: N#CC1=C(N)N(c2ccccc2)C(c2ccccc2)C1(C#N)C#N (stereo unspecified)
- EC50: > 200 µM
- IC50: 14.1 µM

SMILES: Cc1ccc(S(=O)(=O)Nn2c(S)c(C#N)c(-c3ccc([N+](=O)[O-])cc3)c(C#N)c2=O)cc1
- EC50: > 200 µM
- IC50: 30.9 µM

From PubChem BioAssay AID179 (DTP/NCI, 2004)
